In brackets after ≈: the same amount, converted by molar mass. Entries after “also recorded” stand apart in the source; their conditions may differ.
Key:
human red blood cells = assay: Hemolytic activity; format: cell-based; conditions: FIG. 3D
Procedure: (§1) Methods: • Human whole blood was obtained from the Houston Gulf Coast Blood Center. • Red blood cells were isolated by the following method: Human blood (in EDTA) was diluted 1:1 with PBS, underlay with 4 mL of Histopaque-1077 (SIGMA) and was centrifuged at 400 g for 30 min. • Red blood cells (RBC) were collected and washed three times with PBS. • 10% suspensions of RBC were prepared with PBS before use. • 50 μL of RBC suspension was added to 2 mL of saponins with different concentration. • The suspension was mixed by vortexing then left to sit at room temperature for 60 minutes. • The suspension was centrifuged at 3000 rpm for 5 min. Absorbance of the supernatant was measured at 540 nm.

[1] = test system: swelling of the recto-anus of rats; assay: Croton oil induced swelling of the recto-anus (hemorrhoids model); format: in vivo, SD rats
Procedure: SD rats, male, age-matched 7-8 weeks old weighing 163±18 g were in the experiment. The tested animals were allowed to acclimate for a week.
A cotton swab with a diameter of 4 mm soaked with 0.16 mL of inducer (deionized water:pyridine:ethyl ether:6% croton oil/ethyl ether, 1:4:5:10) was applied to the rat's anus for 12 seconds. The final concentration of croton oil was 3%. The edema developed linearly until 7-8 hours after application and the severity of the edema was sustained for more than 24 hours. Twenty-four hours later, recto-anus tissue (approx. 10 mm long) was isolated after the rats were euthanized. The weights of rat body and recto-anus were measured. The recto-anus coefficient (RAC) was calculated using the formula: weight of recto-anus (mg)/body weight (g). RAC=weight of recto-anus (mg)/body weight (g)×100%
The rates were randomly divided into 5 groups: control, positive control and 3 test groups, and each group had 8 rats. The dose for 3 groups of rats are 10, 20 and 40 mg/kg. The dose of 0.5% CMC-Na for control group is the same as the each test group. The tested drug was fed into the stomach on the morning, once a day before the animal modeling for 5 days. The anus suppository was applied to positive control once after the animal modeling (1 mL/100 g). The weights of recto-anus and RACs were calculated, compared with the controls and subject to a student t-test.

[2] = test system: ES2 (human ovarian cancer) cells transplanted intra-peritoneally; assay: Animal study, survival of mice with intra-peritoneal ES2 tumor; format: in vivo, Athymic Nu/Nu mice; conditions: for survival of tumor bearing mice: 2.5 mg/kg; for median survival time: i.p. 2.5 mg/kg
Procedure: Methods • Athymic Nu/Nu mice are divided into three groups (A, B and C) with four animals in each group. • On day 0, mice of group A and B were transplanted intra-peritoneally with ES2 (human ovarian cancer) cells. • On day 1, mice from B and C groups received drug (Xanifolia-Y, by i.p. route at dose of 5 mg/kg) • On days 2 to 4, and 7 to 11, B and C groups animals received daily drug administration of Xanifolia-Y, by i.p. route at dose of 2.5 mg/kg. • Group A mice have no drug-treatment.
Methods • Athymic Nu/Nu mice were divided into three groups (A, D and E) with four animals in each group. • On day 0, all mice were transplanted intra-peritoneally with ES2 (human ovarian cancer) cells. • Group A mice received no drug-treatment. • Group D: From day 4, mice received a daily drug administration of Xanifolia-Y, via i.p. route for 9 days at dose of 2.5 mg/kg. • Group E: From day 10, mice received daily drug administration of Xanifolia-Y, via i.p. route for 10 days at dose of 2.5 mg/kg. […]

Hey 8A = assay: MTT assay Hey 8A; format: cell-based, human
Procedure: (§2) Majority of ovarian cancers arise from the surface epithelium of ovary, most of them belong to the histological subtypes of clear cell and serous carcinoma. We obtained 10 more human ovarian carcinoma cell-lines of these histological subtypes for these studies. The inhibition activity exerted by Xanifolia-Y was determined with MTT assay.
Cells: Hey8A (human ovarian carcinoma cells) were grew in RPMI 1640 medium to 90% confluent before drug-treatment. Drug-treatment: Cells cultures were replaced with fresh RPMI medium containing either DMSO (as control) [D1]; or Xanifolia-Y (10, 15, or 20 ug/ml) [Y1, Y2 and Y3]. Aliquot of medium was removed as 0 hours sample and no FN was detected at this time. After 24 hours, aliquot of culture medium was taken out for Fibronectin determination (Western blot method). Cell viability at 24 hours was determined by MTT assay. Cultures were replaced with RPMI medium (5 ml) with MTT and incubated for an hour. The formation of formazan was dissolved in DMSO and OD at 570 nm was measured.

OVCA 433 = assay: MTT assay OVCA 433; format: cell-based; conditions: Homo sapiens, OVCA433; OVCA 433, Serous
Procedure: as §2

[3] = test system: red blood cells (hemolysis); assay: Hemolytic activity; format: cell-based, human; conditions: human red blood cells (isolated from whole blood); human red blood cells, FIG. 5A
Procedure: as §1

[4] = test system: blood vessels in ES2 (human ovarian cancer) xenograft tumor; assay: Genesis of blood vessel in xenograft tumor; format: in vivo, Athymic Nu/Nu mice; conditions: i.p. 2.5 mg/kg on days 10-15 and 18-22, H&E sections
Procedure: Method: Athymic Nu/Nu mice (5-6 weeks old) are divided into two groups (1 and 2) with 5 animals in each group. On day 0, all mice were transplanted intra-peritoneally with one million ES2 (human ovarian cancer) cells. Animals were randomly divided into two groups:
Group 2: Drug-treatment group. On days 10-15 and 18-22, animals received daily drug administration of Xanifolia-Y, by i.p. route at dosage of 2.5 mg/kg.
Animals with high tumor burden were euthanized and solid tumors were taken out from these mice (between 18-27 days). Tumor tissues fixed with formalin at room temperature. The fixed tissues were sectioned and stained with Haematoxylin and eosin (H&E). The red blood cells inside the micro blood vessels were identified under a microscope.

[5] = drug-treatment started on day 10 after tumor inoculation
[6] = drug-treatment starting on day 4 after tumor inoculation

## C/C=C(/C)C(=O)O[C@H]1[C@H](OC(=O)/C(C)=C\C)[C@@]2(CO)C(CC1(C)C)C1=CCC3[C@@]4(C)CC[C@H](O)C(C)(C)C4CC[C@@]3(C)[C@]1(C)[C@@H](O)[C@H]2O (stereo partly drawn) [ACH-Y]
Human red blood cells
  hemolytic activity of hydrolysed products of compound Y: reduced hemolytic activity

## C/C=C(/C)C(=O)O[C@H]1[C@H](OC(=O)/C(C)=C\C)[C@@]2(CO)C(CC1(C)C)C1=CCC3[C@@]4(C)CC[C@H](O[C@@H]5OC(C(=O)O)[C@@H](O)C(O[C@@H]6O[C@@H](CO)C(O)C6O)C5O[C@@H]5OC(CO)[C@H](O)C(O)C5O)C(C)(C)C4CC[C@@]3(C)[C@]1(C)[C@@H](O)[C@H]2O (stereo partly drawn) [Xanifolia-Y, 3-O-[β-D-galactopyranosyl (1→2)]-α-L-arabinofuranosy (1→3)-β-D-glucuronopyranosyl-21,22-O-diangeloyl-3β, 15α, 16α, 21β, 22α, 28-hexahydroxyolean-12-ene]
[1]; 10 mg/Kg
  RAC: 1.83 ± 0.36
  Reduction rate %: 21.5%
[1]; 10 mg/Kg fed into the stomach once a day for 5 days
  Weight of recto-anus: 4.68 ± 0.77 g
[1]; 20 mg/Kg
  RAC: 1.61 ± 0.24
  Reduction rate %: 30.9%
  Weight of recto-anus: 4.28 ± 0.60 g
[1]; 40 mg/Kg
  RAC: 1.51 ± 0.23
  Reduction rate %: 35.1%
  Weight of recto-anus: 3.97 ± 0.65 g
[2]; Group C: no tumor, i.p. 5 mg/kg day 1, 2.5 mg/kg days 2-4 and 7-11
  survival of mice without tumor given drug: over 50 days
[2]; Group D: i.p. 2.5 mg/kg daily, 9 times from day 4
  survival of tumor bearing mice: all survived; also recorded: no death in 50 days
[2]; Group E: i.p. 2.5 mg/kg daily, 10 times from day 10
  survival of tumor bearing mice: half the number of mice survived; also recorded: half of the mice survive in 50 days
[2]; [5]
  extension of life span: 29%
  median survival time: 31 days
[2]; [6]
  extension of life span: 141%
  median survival time: 58 days
Hey 8A; Hey8A, 15 ug/ml and 20 ug/ml, 24 hours
  state of cells after drug-treatment: found dead (floating)
Hey 8A; Homo sapiens, Hey8A, 10 ug/ml, 24 hours, read-out: growth of cells, % of control (MTT)
  activity at 10 µg/mL: 83%
Hey 8A; Homo sapiens, Hey 8A, Serous
  IC50: 10.5 µM
OVCA 433
  IC50: 8.8 µM
[3]
  IC50 at 60 min: 1 µg/mL (≈ 0.876 µM)
[4]
  blood vessels in tumor sections: more blood vessels were observed in the control Group1 than those in the drug-treated Group 2
[4]; listed as Xanifolia Y
  blood vessels in tumor sections: More blood vessels were observed in the control Group 1 than those in the drug-treated Group 2

Source: US10213451B2, “Methods and compounds for modulating the secretion or expression of adhesion proteins or angiopoietins of cells” (PACIFIC ARROW LIMITED, priority 2004, dated 2019)
